For test [1], the target named is T1, Histamine H4 receptor (Homo sapiens, UniProt Q9H3N8). Put plainly: Displacement of [3H]histamine from human histamine H4 receptor expressed in human SK-N-MC cells by liquid scintillation counting. Type of test: cell-based.
The target in the next test is Histamine H3 receptor (Homo sapiens, UniProt Q9Y5N1). Put plainly: Displacement of [3H]N-alpha-methylhistamine from human histamine H3 receptor expressed in human SK-N-MC cells by liquid scintillation counting. In kind it is cell-based.
The target of test [2] is T1, Histamine H4 receptor. Put plainly: Antagonist activity at human histamine H4 receptor expressed in human SK-N-MC cells assessed as inhibition of 2-[3-(imidazol-4-yl)-propyl]-1-(4-iodo-benzyl)-isothiourea dihydrobromide-induced intrinsic activity. In kind it is functional, cell-based. The settings on record: read-out: pA2 (converted).

Each structure is given as a SMILES string. Structures can show the parent of a compound that is named as a salt.

T1 sequence (Q9H3N8 whole entry): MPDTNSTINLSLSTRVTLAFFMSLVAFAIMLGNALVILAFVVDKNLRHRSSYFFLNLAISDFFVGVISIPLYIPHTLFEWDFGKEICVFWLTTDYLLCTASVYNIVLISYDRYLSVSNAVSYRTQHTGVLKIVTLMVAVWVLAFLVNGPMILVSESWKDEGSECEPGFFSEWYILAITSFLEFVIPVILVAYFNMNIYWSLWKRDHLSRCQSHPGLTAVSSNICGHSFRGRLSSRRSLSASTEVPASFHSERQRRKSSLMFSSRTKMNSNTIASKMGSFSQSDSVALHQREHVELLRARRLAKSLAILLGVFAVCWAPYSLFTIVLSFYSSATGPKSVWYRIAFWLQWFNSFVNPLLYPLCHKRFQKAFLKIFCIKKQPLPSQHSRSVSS
Sequence of Histamine H3 receptor (Q9Y5N1 whole entry): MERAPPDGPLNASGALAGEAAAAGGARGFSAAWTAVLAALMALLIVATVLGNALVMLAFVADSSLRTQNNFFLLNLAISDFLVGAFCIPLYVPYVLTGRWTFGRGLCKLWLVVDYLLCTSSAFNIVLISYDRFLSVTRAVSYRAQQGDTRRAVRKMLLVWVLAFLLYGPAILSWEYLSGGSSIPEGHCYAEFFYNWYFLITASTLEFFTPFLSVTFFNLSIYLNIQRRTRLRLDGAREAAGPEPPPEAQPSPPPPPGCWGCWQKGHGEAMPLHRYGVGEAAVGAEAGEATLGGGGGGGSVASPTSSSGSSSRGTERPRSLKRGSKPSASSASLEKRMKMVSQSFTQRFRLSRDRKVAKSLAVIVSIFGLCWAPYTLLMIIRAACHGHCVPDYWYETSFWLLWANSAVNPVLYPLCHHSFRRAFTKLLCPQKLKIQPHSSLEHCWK

At Histamine H4 receptor [1], `NC(=NCc1ccc(Cl)cc1)SCCCc1cnc[nH]1` [CLOBENPROPIT] gave a Ki of 10 nM.
Consider `N=C(NCc1ccc(I)cc1)SCCCc1c[nH]cn1`, for which the Ki on Histamine H4 receptor [1] is 10 nM; on Histamine H3 receptor, 3.16 nM.
As to `Cc1ccc(CNC(=N)SCCCc2c[nH]cn2)cc1`, the values for the inhibition constant (Ki) at Histamine H4 receptor [1] and at Histamine H3 receptor were 25.1 nM and 6.31 nM, respectively.
On the same counts, the results for `N=C(NCc1ccccc1Cl)SCCCc1c[nH]cn1` are 10 nM and 7.94 nM.
For `N=C(NCc1ccc(Cl)c(Cl)c1)SCCCc1c[nH]cn1` the same measures were 1.58 nM and 6.31 nM.
Consider `N=C(N)SCCc1cnc[nH]1` [IMETIT], for which the results for the Ki at Histamine H4 receptor [1] and on Histamine H3 receptor were 6.31 nM and 1.58 nM, respectively.
As for `N=C(NCCCc1ccccc1)SCCCc1c[nH]cn1`, the figures for the inhibition constant (Ki) on Histamine H4 receptor [1] and at Histamine H3 receptor were 50.1 nM and 10 nM, respectively.
For `NC(=NCCCCc1ccccc1)SCCCc1cnc[nH]1` the same measures were 63.1 nM and 20 nM.
On the same counts, the results for `NC(=NCCCc1cnc[nH]1)NCc1ccccc1` are 25.1 nM and 79.4 nM.
On the same counts, the results for `COc1ccc(CCNC(=N)SCCCc2c[nH]cn2)cc1` are 158 nM and 20 nM.
As to `NC(=NCCc1ccc(I)cc1)SCCCc1cnc[nH]1` [IODOPHENPROPIT HYDROBROMIDE], the Ki was 15.8 nM on Histamine H4 receptor [1] and 7.94 nM at Histamine H3 receptor.
With `N=C(NCCc1ccccc1)SCCCc1c[nH]cn1`, the Ki on Histamine H4 receptor [1] was 63.1 nM; on Histamine H3 receptor it was 20 nM.
For the molecule `N=C(NCCc1ccc(Cl)cc1)SCCCc1c[nH]cn1`, the inhibition constant Ki was 31.6 nM at Histamine H4 receptor [1] and 10 nM at Histamine H3 receptor.
`NC(=NCCc1ccc(Br)cc1)SCCCc1cnc[nH]1`: the Ki is 39.8 nM at Histamine H4 receptor [1] and 7.94 nM on Histamine H3 receptor.
Turning to `COc1ccc(CNC(=N)SCCCc2c[nH]cn2)cc1`, the results for the Ki on Histamine H4 receptor [1] and at Histamine H3 receptor were 12.6 nM and 7.94 nM, respectively.
For `N=C(N)SCCCc1c[nH]cn1`, the Ki is 12.6 nM on Histamine H4 receptor [1] and 2.51 nM at Histamine H3 receptor.
Consider `N=C(NCCC(c1ccccc1)c1ccccc1)SCCCc1c[nH]cn1`, for which the Ki at Histamine H4 receptor [1] is 25.1 nM; on Histamine H3 receptor, 31.6 nM.
Regarding `N=C(NCc1ccc(Br)cc1)SCCCc1c[nH]cn1`, the Ki on Histamine H4 receptor [1] was 10 nM; at Histamine H3 receptor, 2.51 nM.
On the same counts, the results for `N=C(NCc1cccc(Cl)c1)SCCCc1c[nH]cn1` are 15.8 nM and 7.94 nM.
With `N=C(NCc1ccccc1)SCCCc1c[nH]cn1`, the Ki was 25.1 nM on Histamine H4 receptor [1] and 7.94 nM on Histamine H3 receptor. For the same molecule, at Histamine H4 receptor [2], the Kb is 20 nM.
Regarding `Cc1ccc(CCNC(=N)SCCCc2c[nH]cn2)cc1`, the Ki at Histamine H4 receptor [1] was 100 nM; on Histamine H3 receptor, 12.6 nM.
Turning to `N=C(NC=C(c1ccccc1)c1ccccc1)NCCCc1c[nH]cn1`, the Ki on Histamine H4 receptor [1] was 158 nM; on Histamine H3 receptor, 316 nM.
As for `N=C(NCc1ccc(F)cc1)SCCCc1c[nH]cn1`, the Ki at Histamine H4 receptor [1] is 25.1 nM; at Histamine H3 receptor it was 5.01 nM.

The record behind these values is ChEMBL document CHEMBL1151918 (Bioorg Med Chem, 2009).
